The structures appear in SMILES notation. Activity calls are given as the source filed them. No rule for the calls is given here. Bounds are passed on as bounds.

Induced myeloid leukemia cell differentiation protein Mcl-1 (Homo sapiens), sequence (Q07820 whole entry, looked up): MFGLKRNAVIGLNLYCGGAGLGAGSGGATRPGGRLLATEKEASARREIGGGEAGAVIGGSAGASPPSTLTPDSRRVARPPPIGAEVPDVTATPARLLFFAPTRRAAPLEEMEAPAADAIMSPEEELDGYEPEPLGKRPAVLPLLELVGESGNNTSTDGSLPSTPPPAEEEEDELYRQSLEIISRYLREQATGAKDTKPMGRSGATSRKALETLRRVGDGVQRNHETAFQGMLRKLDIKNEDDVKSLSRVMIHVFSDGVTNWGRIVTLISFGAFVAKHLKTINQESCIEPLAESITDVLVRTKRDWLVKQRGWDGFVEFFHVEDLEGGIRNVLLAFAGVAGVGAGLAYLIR

The assay addresses Induced myeloid leukemia cell differentiation protein Mcl-1 (Homo sapiens) (UniProt Q07820). Put plainly: blockers of Bid binding to Mcl-1 – biochemical, TR-FRET, dose response (AID 1418). The following applies: Mcl-1/Bid peptide binding, TR-FRET (europium/Dy647), 2 hr. In general terms: Time-resolved FRET reads energy transfer from a long-lived donor to a nearby acceptor.
In the case of `O=[N+]([O-])c1ccc(NC(=S)NCCc2ccc(Cl)cc2)cc1`, the IC50 (in general, the midpoint of a concentration-inhibition curve) was > 54 µM (inactive).

Take `O=C(N/N=C/c1ccc(-c2ccc(Cl)c(C(=O)O)c2)o1)c1cc2c(ccc3ccccc32)o1`: the IC50 is 8.18 µM.

As for `COc1cc(-c2ccc(Nc3ccccc3C(=O)O)c(OC)c2)ccc1Nc1ccccc1C(=O)O`, the IC50 was 0.85 µM.

For the molecule `C=CCn1c(O)c(C(C)=NCC2CCCO2)c(=O)[nH]c1=O` (stereo not drawn), the IC50 is 0.48 µM.

For the molecule `O=C(CCCN1C(=O)c2ccccc2C1=O)Nc1ccccc1`, the IC50 is > 54 µM (inactive).

For `CN(C)CC(O)CN(c1ccccc1)c1ccccc1` (stereo not drawn), the IC50 was > 54 µM (inactive).

Consider `O=[N+]([O-])c1cc(Cl)cc(/C=N/NC(=S)Nc2ccc(S(=O)(=O)N3CCOCC3)cc2)c1O`, for which the IC50 was > 54 µM (inactive).

Consider `O=S(=O)(c1ccccc1)N1CCN(Cc2ccccc2C(F)(F)F)CC1`, for which the IC50 is > 54 µM (inactive).

Regarding `COc1ccc(C(=O)Nc2cccc(C)c2)cc1S(=O)(=O)N1CCOCC1`, the IC50 is > 54 µM (inactive).

In the case of `COC(=O)CSc1nc(C)c(C)c(C)c1C(N)=O`, the IC50 is > 54 µM (inactive).

Consider `CC1(C)CC(=O)C(C(c2cccnc2)C2C(=O)CC(C)(C)CC2=O)C(=O)C1`, for which the IC50 is > 54 µM (inactive).

Turning to `Cc1ccc2nc(NC(=O)c3cccc(-c4cc5ccccc5oc4=O)c3)sc2c1`, the IC50 was 0.99 µM.

For `COc1ccccc1NS(=O)(=O)c1cccc(NC(=O)C2CC(=O)N(Cc3ccccc3)C2)c1` (stereo not drawn), the IC50 was > 54 µM (inactive).

In the case of `C=C(C=O)CC1CC(O)[C@]2(C)OC3CC4OC5C[C@]6(C)O[C@]7(C)CCC8OC9C[C@]%10(C)OC%11C(C)=CC(=O)OC%11CC%10OC9C[C@@H](C)C8OC7CC6O[C@]5(C)CC5OC5C4OC3CC2O1` (stereo partly drawn), the IC50 was > 54 µM (inactive).

Turning to `O=C(c1ccccc1)N1CCN(C2CCCCCC2)CC1`, the IC50 is > 54 µM (inactive).

For `COc1ccc(Cc2nnc(NC(=O)Cc3cccs3)s2)cc1OC`, the IC50 was > 54 µM (inactive).

With `CCN(CC)c1ccc(/C=N/Nc2cccc(C)c2)c(O)c1`, the IC50 was > 54 µM (inactive).

Consider `COc1ccc(N2C(=O)/C(=C/C=C/c3ccccc3[N+](=O)[O-])C(=O)NC2=S)cc1`, for which the half-maximal inhibitory concentration (IC50) was 1.05 µM.

For `Nc1ccc(N)c(C(=O)O)c1`, the half-maximal inhibitory concentration (IC50) was 28.7 µM.

For `COc1cccc(N2CCN(C(=O)NC3CCCCC3)CC2)c1`, the IC50 was > 54 µM (inactive).

On to `O=C1CSC(c2cccnc2)N1c1ccc(Cl)cc1` (stereo not drawn), for which the IC50 was > 54 µM (inactive).

Turning to `O=C(Nc1ccc(S(=O)(=O)Nc2nccs2)cc1)c1cc(-c2ccccc2Cl)nc2ccccc12`, the IC50 was > 54 µM (inactive).

On to `COc1cccc(OC)c1C(=O)Nc1ccccc1C(=O)N1CCOCC1`, for which the IC50 is > 54 µM (inactive).

As to `CCOC(=O)c1sc2nc3c(SCCC(=O)O)cc(C(=O)c4cc(OC)ccc4O)cn3c(=O)c2c1C`, the half-inhibitory concentration (IC50) is 1.66 µM.

With `Oc1c(C(c2ccc(Cl)cc2)N2CCCC2)cc(Cl)c2cccnc12` (stereo not drawn), the IC50 is 1.16 µM.

`CC1CCCC(C)N1CCNC(=O)C1CCN(S(=O)(=O)N2CCCCC2)CC1` (stereo not drawn): the IC50 is > 54 µM (inactive).

For the molecule `CC1=C(C#N)C(=O)NC(=O)/C1=C\c1ccc(-c2ccc(C)cc2[N+](=O)[O-])o1`, the half-inhibitory concentration (IC50) is 1.09 µM.

As to `CC(=O)c1ccc(NC(=S)NNC(=O)c2ccncc2)cc1`, the IC50 was > 54 µM (inactive).

As to `CSc1nc(C)cc(OCC(=O)n2nc(C)cc2C)n1`, the IC50 is > 54 µM (inactive).

On to `Cc1ccc(-n2cccc2/C=C2/C(=N)N3C(=NC2=O)SN=C3S(C)(=O)=O)cc1Cl`, for which the 50% inhibitory concentration (IC50) was 10.9 µM.

On to `C=CCn1c(O)c(N=NC(=O)CNC(=O)/C=C/c2ccc(OC)cc2)c2ccccc21`, for which the IC50 was > 54 µM (inactive).

In the case of `Cc1cc(C)cc(N(CC(=O)NC2CCC(C)CC2)S(=O)(=O)c2c(C)noc2C)c1` (stereo not drawn), the IC50 was > 54 µM (inactive).

As to `O=C1N=c2ccccc2=C1c1c(O)n(-c2cccc(F)c2)[nH]c1=O`, the concentration for half-maximal inhibition (IC50) is 1.56 µM.

Regarding `CN1C(=S)N(c2cccnc2)C(=O)/C1=C\c1ccc(N(C)C)cc1`, the IC50 is 9 µM.

For the molecule `CC1=NOC(=O)/C1=C/c1ccc(-c2ccc(Cl)cc2)o1`, the IC50 is 8.87 µM.

Turning to `COc1ccc(C(=O)N2CCN(Cc3ccccc3C)CC2)cc1OC`, the IC50 is > 54 µM (inactive).

On to `Cc1cc(C)c(S(=O)(=O)/N=C2/C=C(Sc3ncn[nH]3)C(=O)c3ccccc32)cc1C`, for which the 50% inhibitory concentration (IC50) is 1.19 µM.

As to `C=CCOC(=O)c1cc(-c2ccc(/C=C3\C(=O)NC(=O)C(C#N)=C3C)o2)ccc1Cl`, the IC50 was 0.53 µM.

Take `Cc1n[nH]c(C)c1S(=O)(=O)N1CCN(c2ccccn2)CC1`: the IC50 is > 54 µM (inactive).

Take `COC(=O)C(CC(C)C)NC(=O)c1ccc(F)cc1` (stereo not drawn): the IC50 is > 54 µM (inactive).

Regarding `CCOC(=O)C1CCN(C(=O)c2cc(S(=O)(=O)N3CCOCC3)c(Cl)cc2Cl)CC1`, the IC50 is > 54 µM (inactive).

On to `O=c1c2ccccc2nc(/C=C/c2cccnc2)n1CCc1ccccc1`, for which the IC50 was 0.63 µM.

For the molecule `O=C(CP(=O)(c1ccccc1)c1ccccc1)Nc1nc2ccc(Cl)cc2s1`, the IC50 was > 54 µM (inactive).

Regarding `CC1CC(C)CN(CCOCCSc2ccccc2)C1` (stereo not drawn), the IC50 was > 54 µM (inactive).

With `CC1CCc2c(sc3ncn(CC(=O)N=Nc4c(O)[nH]c5ccccc45)c(=O)c23)C1` (stereo not drawn), the IC50 was 1.47 µM.

With `CC(NC(=O)NC1CCCCC1)C(c1cccs1)N1CCN(c2ccccc2)CC1` (stereo not drawn), the IC50 is > 54 µM (inactive).

`O=C(O)COc1ccccc1C(Nc1cccnc1)c1cc(Cl)c2cccnc2c1O` (stereo not drawn): the IC50 is 2.52 µM.

For the molecule `COc1ccc(C2SCC(=O)N2CCCN(C)C)cc1` (stereo not drawn), the IC50 was > 54 µM (inactive).

For the molecule `COc1ccc(N=Nc2ccc(O)c3ncccc23)cc1`, the IC50 was 15.1 µM.

On to `CC(C)(C)C(O)C(Oc1ccc(Cl)cc1)n1cncn1` (stereo not drawn), for which the IC50 is > 54 µM (inactive).

For the molecule `CCS(=O)(=O)NCc1ccc2c(c1)cc(C)n2C`, the IC50 is > 54 µM (inactive).

As to `CCOc1cccc(CNCCO)c1OCc1ccc(Cl)cc1Cl`, the IC50 is > 54 µM (inactive).

`C[N+](C)(C)c1ccc(/C=N/Nc2nc(Cl)c(C#N)c(Cl)c2Cl)cc1`: the IC50 is > 54 µM (inactive).

As for `COc1ccc2nc(NC(=O)c3ccc(-c4cccc([N+](=O)[O-])c4)o3)sc2c1`, the IC50 was 0.81 µM.

Regarding `O=P(O)(O)C#Cc1ccccc1`, the IC50 is > 54 µM (inactive).

`O=C(Nc1ccc(Nc2ccncc2)cc1)c1ccc(Nc2ccnc3ccc([N+](=O)[O-])cc23)cc1[N+](=O)[O-]`: the IC50 is 1.38 µM.

As to `CCc1ccc(C(CC(=O)c2ccc(Cl)cc2)C(=O)O)cc1` (stereo not drawn), the IC50 is > 54 µM (inactive).

Turning to `C=CCc1cccc2cc(C(=O)Nc3ccc(S(=O)(=O)Nc4nnc(CC)s4)cc3)c(=O)oc12`, the IC50 was > 54 µM (inactive).

With `O=C(NCC1CCCO1)c1ccc(CSCc2cccc(F)c2)o1` (stereo not drawn), the IC50 was > 54 µM (inactive).

As to `c1ccc2c(c1)ncn2CCCCOc1ccc2c(c1)CCC2`, the IC50 was > 54 µM (inactive).

For `COc1ccc2nc(NC(=O)c3cccc(-c4cc5ccccc5oc4=O)c3)sc2c1`, the 50% inhibitory concentration (IC50) is 0.89 µM.

With `O=c1c2ccccc2nc(/C=C/c2cccnc2)n1Cc1ccccc1`, the half-maximal inhibitory concentration (IC50) is 0.54 µM.

On to `COC(CNC(=O)c1ccc2nc(-c3cccs3)c(-c3cccs3)nc2c1)OC`, for which the IC50 is > 54 µM (inactive).

The values above are taken from PubChem BioAssay AID1418 (Emory University Molecular Libraries Screening Center, 2008).
